Data as given in patent US9597316B2, “Indole compounds for use in treating inflammation and cancer” (BIOVENTURES LLC, priority 2012, dated 2017).

What was measured:
[1] = in water; cited from earlier work
HL-60(TB) (Leukemia) = details: for CC50: read-out: LC50
Procedure: (§1) The preliminary evaluation of compounds 3a-z was carried out at a single dose of 10 μM, against a panel of 60 human tumor cell lines, according to the procedure described by Rubinstein et al., Natl. Cancer. […] The human tumor cell line panel included leukemia, non-small cell lung, colon, central nervous system (CNS), melanoma, ovarian, renal, prostate, and breast cancer cell lines.
(§2) Dose-response curves were created by plotting cytotoxic effect against the log10 of the drug concentration for each cell line. Cytotoxic effects of each compound were determined as GI50 and LC50 values, which represent the molar drug concentration for causing 50% growth inhibition, and the concentration that kills 50% of the cells, respectively.

MDA-MB-435 (Melanoma) = assay: five dose-response growth inhibition/cytotoxicity, MDA-MB-435; format: cell-based, human; details: for CC50: read-out: LC50 (the source's name)
Procedure: as §1, §2

KM-12 (Colon Cancer) = details: for CC50: read-out: LC50
[2] = test system: NCI/ADR-RES (Ovarian Cancer); assay: five dose-response growth inhibition/cytotoxicity, NCI/ADR-RES; format: cell-based, human; details: for CC50: read-out: LC50 (the source's name)
Procedure: as §1, §2

K-562 (Leukemia) = assay: five dose-response growth inhibition/cytotoxicity, K-562; format: cell-based, human; details: for CC50: read-out: LC50 (the source's name)
Procedure: as §1, §2

[3] = test system: leukemia cell lines in the panel; assay: five dose-response growth inhibition, leukemia cell lines in the panel; format: cell-based, human; details: all four leukemia cell lines in the panel; read-out: GI50 values in the range
Procedure: as §1, §2

[4] = test system: HOP-62 (Non-Small Cell Lung Cancer); assay: five dose-response growth inhibition/cytotoxicity, HOP-62; format: cell-based, human; details: for CC50: read-out: LC50 (the source's name)
Procedure: as §1, §2

U251 (CNS Cancer) = assay: five dose-response growth inhibition/cytotoxicity, U251; format: cell-based, human; details: for CC50: read-out: LC50 (the source's name)
Procedure: as §1, §2

HCT-15 (Colon Cancer) = assay: five dose-response growth inhibition/cytotoxicity, HCT-15; format: cell-based, human; details: for CC50: read-out: LC50 (the source's name)
Procedure: as §1, §2

M14 (Melanoma) = assay: five dose-response growth inhibition/cytotoxicity, M14; format: cell-based, human; details: for CC50: read-out: LC50 (the source's name)
Procedure: as §1, §2

LOX IMVI (Melanoma) = assay: five dose-response growth inhibition/cytotoxicity, LOX IMVI; format: cell-based, human; details: for CC50: read-out: LC50 (the source's name)
Procedure: as §1, §2

SR (Leukemia) = assay: five dose-response growth inhibition/cytotoxicity, SR; format: cell-based, human; details: for CC50: read-out: LC50 (the source's name)
Procedure: as §1, §2

SF-539 (CNS Cancer) = assay: five dose-response growth inhibition/cytotoxicity, SF-539; format: cell-based, human; details: for CC50: read-out: LC50 (the source's name)
Procedure: as §1, §2

SK-MEL-5 (Melanoma) = assay: five dose-response growth inhibition/cytotoxicity, SK-MEL-5; format: cell-based, human; details: for CC50: read-out: LC50 (the source's name)
Procedure: as §1, §2

UACC-62 (Melanoma) = assay: five dose-response growth inhibition/cytotoxicity, UACC-62; format: cell-based, human; details: for CC50: read-out: LC50 (the source's name)
Procedure: as §1, §2

SF-268 (CNS Cancer) = assay: five dose-response growth inhibition/cytotoxicity, SF-268; format: cell-based, human; details: for CC50: read-out: LC50 (the source's name)
Procedure: as §1, §2

OVCAR-3 (Ovarian Cancer) = assay: five dose-response growth inhibition/cytotoxicity, OVCAR-3; format: cell-based, human; details: for CC50: read-out: LC50 (the source's name)
Procedure: as §1, §2

CCRF-CEM (Leukemia) = assay: five dose-response growth inhibition/cytotoxicity, CCRF-CEM; format: cell-based, human; details: for CC50: read-out: LC50 (the source's name)
Procedure: as §1, §2

[5] = test system: DU-145 (Prostrate Cancer); assay: five dose-response growth inhibition/cytotoxicity, DU-145; format: cell-based, human; details: for CC50: read-out: LC50 (the source's name)
Procedure: as §1, §2

HCT-116 (Colon Cancer) = assay: five dose-response growth inhibition/cytotoxicity, HCT-116; format: cell-based, human; details: for CC50: read-out: LC50 (the source's name)
Procedure: as §1, §2

[6] = test system: panel of 60 human tumor cell lines; assay: single dose (10 μM) evaluation against panel of 60 human tumor cell lines; format: cell-based; details: any of the human cancer cell lines in the 60 cell panel
Procedure: as §1

MOLT-4 (Leukemia) = assay: five dose-response growth inhibition/cytotoxicity, MOLT-4; format: cell-based, human; details: for CC50: read-out: LC50 (the source's name)
Procedure: as §1, §2

[7] = five dose-response growth inhibition/cytotoxicity, UO-31; format: cell-based, human; details: for CC50: read-out: LC50 (the source's name)
Procedure: as §1, §2

[8] = test system: HOP-92 non-small cell lung cancer; assay: five dose-response growth inhibition/cytotoxicity, HOP-92; format: cell-based, human; details: for CC50: read-out: LC50 (the source's name)
Procedure: as §1, §2

[9] = test system: three melanoma cell lines; assay: five dose-response growth inhibition, melanoma cell lines; format: cell-based, human; details: read-out: GI50 values in the range
Procedure: as §1, §2

| SMILES | GI50 (HL-60(TB) (Leukemia)) [µM] | CC50 (HL-60(TB) (Leukemia)) [µM] | GI50 (MDA-MB-435 (Melanoma); MDA-MB-435) [µM] | CC50 (MDA-MB-435 (Melanoma); MDA-MB-435) [µM] | GI50 [2] [µM] | CC50 [2] [µM] | GI50 (K-562 (Leukemia)) [µM] | CC50 (K-562 (Leukemia)) [µM] | GI50 [3] [µM] | GI50 [4] [µM] | CC50 [4] [µM] | GI50 (U251 (CNS Cancer)) [µM] | CC50 (U251 (CNS Cancer)) [µM] | GI50 (HCT-15 (Colon Cancer)) [µM] | CC50 (HCT-15 (Colon Cancer)) [µM] | GI50 (M14 (Melanoma)) [µM] | CC50 (M14 (Melanoma)) [µM] | GI50 (LOX IMVI (Melanoma)) [µM] | CC50 (LOX IMVI (Melanoma)) [µM] | GI50 (SR (Leukemia)) [µM] | further results |
| --- | --- | --- | --- | --- | --- | --- | --- | --- | --- | --- | --- | --- | --- | --- | --- | --- | --- | --- | --- | --- | --- |
| O=C1CC(=O)NC(=S)N1 [2-Thiobarbituric acid] |  |  |  |  |  |  |  |  |  |  |  |  |  |  |  |  |  |  |  |  | pKa [1]: 2.1 |
| COc1ccc2c(c1)c(C=C1C(=O)NC(=S)NC1=O)cn2C(=O)c1ccccc1Br [Compound 3s] | 3.24 | > 100 | 1.77 | 8.43 | 3.23 | > 100 | 3.8 | > 100 | 2.55 to 4 | 3.59 | 64.3 | 3.09 | 42.1 | 3.83 | 89.9 | 3.52 | > 100 | 2.92 | 47.9 | 2.55 | GI50 (KM-12 (Colon Cancer)): 3.87 µM; CC50 (KM-12 (Colon Cancer)): 51.9 µM; CC50 (SR (Leukemia)): > 100 µM; GI50 (SF-539 (CNS Cancer)): 3 µM; CC50 (SF-539 (CNS Cancer)): 57.8 µM; GI50 (SK-MEL-5 (Melanoma)): 3.47 µM; CC50 (SK-MEL-5 (Melanoma)): > 50 µM; GI50 (UACC-62 (Melanoma)): 3.38 µM; CC50 (UACC-62 (Melanoma)): 39.6 µM; GI50 (SF-268 (CNS Cancer)): 3.86 µM; CC50 (SF-268 (CNS Cancer)): 52.2 µM; GI50 (OVCAR-3 (Ovarian Cancer)): 2.77 µM; CC50 (OVCAR-3 (Ovarian Cancer)): 33.1 µM; GI50 (CCRF-CEM (Leukemia)): 4 µM; CC50 (CCRF-CEM (Leukemia)): > 100 µM; GI50 [5]: 3.01 µM; CC50 [5]: 53.6 µM; GI50 (HCT-116 (Colon Cancer)): 3.76 µM; CC50 (HCT-116 (Colon Cancer)): > 100 µM |
| O=C1NC(=S)NC(=O)C1=Cc1cn(C(=O)c2ccc3ccccc3c2)c2ccccc12 [Compound 3x] |  |  |  |  |  |  |  |  |  |  |  |  |  |  |  |  |  |  |  |  | cytotoxic potency against the 60 cell panel [6]: not identified as potent cytotoxic agents |
| O=C1NC(=S)NC(=O)C1=Cc1cn(C(=O)c2cccc3ccccc23)c2ccccc12 [Compound 3t] | 3.36 | > 100 | 1.91 | 9.23 | 2.59 | > 100 | 3.71 | > 100 | 2.74 to 3.71 | 1.3 | 44.8 | 3.58 | 50.7 | 3.6 | > 100 | 3.22 | > 100 | 3.59 | 55.6 | 2.74 | GI50 (MOLT-4 (Leukemia)): 3.49 µM; CC50 (MOLT-4 (Leukemia)): 79 µM; GI50 [7]: 3.93 µM; CC50 [7]: > 100 µM; GI50 [8]: 1.3 µM; CC50 [8]: 44.8 µM; CC50 (SR (Leukemia)): 92.3 µM; GI50 (SF-539 (CNS Cancer)): 3.68 µM; CC50 (SF-539 (CNS Cancer)): 58.6 µM; GI50 (OVCAR-3 (Ovarian Cancer)): 2.46 µM; CC50 (OVCAR-3 (Ovarian Cancer)): 46.2 µM; GI50 (CCRF-CEM (Leukemia)): 3.35 µM; CC50 (CCRF-CEM (Leukemia)): > 100 µM; GI50 (HCT-116 (Colon Cancer)): 2.9 µM; CC50 (HCT-116 (Colon Cancer)): > 100 µM |
| COc1ccc2c(c1)c(C=C1C(=O)NC(=S)NC1=O)cn2C(=O)c1ccc2ccccc2c1 [Compound 3z] |  |  |  |  |  |  |  |  |  |  |  |  |  |  |  |  |  |  |  |  | cytotoxic potency against the 60 cell panel [6]: not identified as potent cytotoxic agents |
| COc1ccc2c(c1)c(C=C1C(=O)NC(=S)NC1=O)cn2C(=O)c1cccc2ccccc12 [Compound 3w] | 3.47 | > 100 | 2.01 | 12 | 3.14 | > 100 | 3.52 | > 100 | 3.31 to 3.95 | 1.09 | > 100 | 3.23 | > 100 | 3.1 | > 100 | 1.91 | > 100 | 3.8 | > 100 | 3.32 | GI50 (MOLT-4 (Leukemia)): 3.95 µM; CC50 (MOLT-4 (Leukemia)): > 100 µM; GI50 [9]: 1.91 to 3.8 µM; GI50 [7]: 3.72 µM; CC50 [7]: > 100 µM; GI50 [8]: 1.09 µM; CC50 [8]: ≥ 100 µM; CC50 (SR (Leukemia)): > 100 µM; GI50 (SF-539 (CNS Cancer)): 2.3 µM; CC50 (SF-539 (CNS Cancer)): > 100 µM; GI50 (OVCAR-3 (Ovarian Cancer)): 2.38 µM; CC50 (OVCAR-3 (Ovarian Cancer)): 20.9 µM; GI50 (CCRF-CEM (Leukemia)): 3.31 µM; CC50 (CCRF-CEM (Leukemia)): > 100 µM; GI50 (HCT-116 (Colon Cancer)): 3.35 µM; CC50 (HCT-116 (Colon Cancer)): > 100 µM |
| COc1ccc(C(=O)n2cc(C=C3C(=O)NC(=S)NC3=O)c3cc(OC)ccc32)cc1 [Compound 3k] | 3.91 | > 50 | 0.85 | 3.86 | 2.91 | > 50 | 2.55 | > 50 | 1.45 to 3.91 | 3.12 | > 50 | 1.93 | > 50 | 1.8 | ≥ 50 | 2.03 | > 50 | 1.86 | ≥ 50 | 1.45 | GI50 (MDA-MB-435 (Melanoma); melanoma MDA-MB-435): 0.85 µM; GI50 (KM-12 (Colon Cancer)): 1.99 µM; CC50 (KM-12 (Colon Cancer)): ≥ 50 µM; CC50 (SR (Leukemia)): 39.4 µM; GI50 (SF-539 (CNS Cancer)): 2.56 µM; CC50 (SF-539 (CNS Cancer)): > 50 µM; GI50 (SK-MEL-5 (Melanoma)): 2.31 µM; CC50 (SK-MEL-5 (Melanoma)): > 50 µM; GI50 (UACC-62 (Melanoma)): 2.33 µM; CC50 (UACC-62 (Melanoma)): > 50 µM; GI50 (SF-268 (CNS Cancer)): 2.65 µM; CC50 (SF-268 (CNS Cancer)): > 50 µM; GI50 (OVCAR-3 (Ovarian Cancer)): 1.26 µM; CC50 (OVCAR-3 (Ovarian Cancer)): ≥ 50 µM; GI50 (CCRF-CEM (Leukemia)): 2.23 µM; CC50 (CCRF-CEM (Leukemia)): > 50 µM; GI50 [5]: 2.41 µM; CC50 [5]: > 50 µM; GI50 (HCT-116 (Colon Cancer)): 1.95 µM; CC50 (HCT-116 (Colon Cancer)): ≥ 50 µM |
